# Results: ChEMBL document CHEMBL1938396, “Synthesis of new praziquantel analogues: potential candidates for the treatment of schistosomiasis” (2012)
# System: Schistosoma mansoni
# Assay: Antischistosomal activity against Schistosoma mansoni assessed as worm survival incubated for overnight followed by drug washout measured on day 7
# Assay type: functional
row,Structure (SMILES),LC90 [µM]
1,Cc1ccc(S(=O)(=O)N2CC(=O)N3CCc4ccccc4C3C2)cc1 (stereo not given),>10
2,O=C(C1CCCC1)N1CC(=O)N2CCc3ccccc3C2C1 (stereo not given),10
3,COc1cc2c(cc1OC)C1CN(C(=O)C3CCCCC3)CC(=O)N1CC2 (stereo not given),50
4,COc1cc2c(cc1OC)C1CN(C(=O)C3CCCC3)CC(=O)N1CC2 (stereo not given),25
5,COc1cc2c(cc1OC)C1CN(S(=O)(=O)c3ccc(C)cc3)CC(=O)N1CC2 (stereo not given),>100
6,COc1cc2c(cc1OC)C1CN(C(=O)c3ccc(C(F)(F)F)cc3)CC(=O)N1CC2 (stereo not given),>100
7,O=C1C(=O)N2CCc3ccccc3C2CN1C(=O)C1CCCCC1 (stereo not given),>100
8,O=C1C(=O)N2CCc3ccccc3C2CN1C(=O)C1CCCC1 (stereo not given),>100
9,Cc1ccc(S(=O)(=O)N2CC3c4ccccc4CCN3C(=O)C2=O)cc1 (stereo not given),>100
10,O=C1C(=O)N2CCc3ccccc3C2CN1C(=O)c1ccc(C(F)(F)F)cc1 (stereo not given),>100
11,O=C(CC1CCCCC1)N1CC2c3ccccc3CCN2C(=O)C1=O (stereo not given),>100
12,O=C(C1CCCCC1)N1CC(=O)N2CCc3c([nH]c4ccccc34)C2C1 (stereo not given),25
13,O=C(c1ccc(C(F)(F)F)cc1)N1CC(=O)N2CCc3c([nH]c4ccccc34)C2C1 (stereo not given),50
14,O=C(C1CCCCC1)N1CC(=O)N2CCc3c(n(Cc4ccccc4)c4ccccc34)C2C1 (stereo not given),25
15,O=C(c1ccc(C(F)(F)F)cc1)N1CC(=O)N2CCc3c(n(Cc4ccccc4)c4ccccc34)C2C1 (stereo not given),>100
16,O=C1C(=O)N2CCc3c(n(Cc4ccccc4)c4ccccc34)C2CN1C(=O)C1CCCCC1 (stereo not given),>100
17,O=C1C(=O)N2CCc3c(n(Cc4ccccc4)c4ccccc34)C2CN1C(=O)C1CCCC1 (stereo not given),>100
18,O=C1C(=O)N2CCc3c(n(Cc4ccccc4)c4ccccc34)C2CN1C(=O)c1ccc(C(F)(F)F)cc1 (stereo not given),>100
19,O=C(CC1CCCCC1)N1CC2c3c(c4ccccc4n3Cc3ccccc3)CCN2C(=O)C1=O (stereo not given),>100
20,O=C(C1CCCCC1)N1CC(=O)N2CCc3ccccc3C2C1 (stereo not given) [PRAZIQUANTEL],3
